Reference: article PMC6630443 (Viruses, 2019)

System: persistent USUV
Format: cell-based, Usutu virus

Row | SMILES | USUV infectivity in supernatant after drug removal | Viral RNA levels in cellular supernatant by day 10
1 | NC(=O)c1nc(F)cnc1O [Favipiravir, 6-fluoro-3-hydroxy-2-pyrazinecarboxamide] | re-emerged | barely detectable
2 | NC(=O)c1ncn([C@@H]2O[C@H](CO)[C@@H](O)[C@H]2O)n1 [Ribavirin, 1-(β-D-Ribofuranosyl)-1H-1,2,4-triazole-3-carboxamide] | re-emerged | barely detectable
